Results taken from patent publication US9260439B2, “Dihydropyrrolopyrimidine derivatives” (PFIZER INC., priority 2014, dated 2016).
pKi: −log10 of the molar value.

molecular target: truncated PI3Kα (p110α/iSH2 p85α) (Homo sapiens (Human), UniProt P42336); experiment: PI3KA_Act fluorescence polarization kinase assay (Ki); format: biochemical; conditions: 1 mM ATP
Summary of the method: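 Ki values result from fitting fluorescence polarization signals to the Morrison equation for tight-binding competitive inhibitors. The detector was GST-Grp1 PH domain with TAMRA-PIP3, read after a 30 min room-temperature reaction of 0.5 nM truncated PI3Kα and 30 μM PIP2 at pH 7.4 in HEPES/NaCl/MgCl2/DTT/CHAPS buffer. Compounds were tested as 12-point 3-fold dilutions from 3 μM.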

Sequence of truncated PI3Kα (p110α/iSH2 p85α) (P42336 whole entry, the tested form may be a part): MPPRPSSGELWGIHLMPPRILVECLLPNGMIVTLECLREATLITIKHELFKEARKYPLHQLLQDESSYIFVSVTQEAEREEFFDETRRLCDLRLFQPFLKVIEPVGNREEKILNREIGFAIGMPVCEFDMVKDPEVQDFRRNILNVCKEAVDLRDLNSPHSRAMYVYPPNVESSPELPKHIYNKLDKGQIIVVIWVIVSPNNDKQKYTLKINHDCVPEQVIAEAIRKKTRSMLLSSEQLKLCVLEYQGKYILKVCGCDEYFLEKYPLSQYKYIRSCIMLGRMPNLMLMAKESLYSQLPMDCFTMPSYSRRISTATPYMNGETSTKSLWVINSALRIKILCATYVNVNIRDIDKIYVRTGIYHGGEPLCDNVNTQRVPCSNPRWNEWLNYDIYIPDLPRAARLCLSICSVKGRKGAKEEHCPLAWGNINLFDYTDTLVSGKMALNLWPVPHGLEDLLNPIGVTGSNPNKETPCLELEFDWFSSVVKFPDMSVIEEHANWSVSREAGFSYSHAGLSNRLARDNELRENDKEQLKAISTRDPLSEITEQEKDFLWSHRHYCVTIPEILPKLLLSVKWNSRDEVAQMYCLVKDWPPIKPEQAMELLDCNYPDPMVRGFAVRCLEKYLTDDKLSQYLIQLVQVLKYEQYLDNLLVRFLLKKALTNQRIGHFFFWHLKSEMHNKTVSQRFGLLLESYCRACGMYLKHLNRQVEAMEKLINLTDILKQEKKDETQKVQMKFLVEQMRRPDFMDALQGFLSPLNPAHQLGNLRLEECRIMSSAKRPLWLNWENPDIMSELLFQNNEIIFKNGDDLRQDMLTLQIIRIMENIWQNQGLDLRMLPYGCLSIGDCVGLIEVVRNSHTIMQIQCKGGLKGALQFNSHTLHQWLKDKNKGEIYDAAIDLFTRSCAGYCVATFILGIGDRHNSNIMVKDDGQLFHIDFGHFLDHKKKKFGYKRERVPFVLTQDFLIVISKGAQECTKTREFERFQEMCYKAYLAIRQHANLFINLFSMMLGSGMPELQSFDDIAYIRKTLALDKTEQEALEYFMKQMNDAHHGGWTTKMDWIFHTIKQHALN

| Compound | PI3KA_Act Ki | pKi |
| --- | --- | --- |
| CN1CC[C@H](OC(=O)N2CC[C@](C)(N3CCc4c(-c5cnc(N)nc5)nc(N5CCOCC5)nc43)C2)C1 [Example 417, (3S)-1-methylpyrrolidin-3-yl (3S)-3-[4-(2-aminopyrimidin-5-yl)-2-(morpholin-4-yl)-5,6-dihydro-7H-pyrrolo[2,3-d]pyrimidin-7-yl]-3-methylpyrrolidine-1-carboxylate] | <18 pM |  |
| C[C@H]1COCCN1c1nc(-c2cnc(N)nc2)c2c(n1)N(C1CN(S(=O)(=O)C3CCC3)C1)CC2 [Example 463, 5-{7-[1-(cyclobutylsulfonyl)azetidin-3-yl]-2-[(3S)-3-methylmorpholin-4-yl]-6,7-dihydro-5H-pyrrolo[2,3-d]pyrimidin-4-yl}pyrimidin-2-amine] | 169 pM |  |
| CC(C)(C)OC(=O)N1C[C@@H](F)[C@@H](N2CCc3c(-c4cnc(N)nc4)nc(N4CCOCC4)nc32)C1 [Example 409, tert-butyl (3S,4R)-3-[4-(2-aminopyrimidin-5-yl)-2-(morpholin-4-yl)-5,6-dihydro-7H-pyrrolo[2,3-d]pyrimidin-7-yl]-4-fluoropyrrolidine-1-carboxylate] | 168 pM |  |
| CN(C)CC(=O)N1CC[C@](C)(N2CCc3c(-c4cnc(N)nc4)nc(N4CCOCC4)nc32)C1 [Example 299, 1-{(3S)-3-[4-(2-aminopyrimidin-5-yl)-2-(morpholin-4-yl)-5,6-dihydro-7H-pyrrolo[2,3-d]pyrimidin-7-yl]-3-methylpyrrolidin-1-yl}-2-(dimethylamino) ethanone] | <18 pM |  |
| COCCS(=O)(=O)N1CC(N2CCc3c(-c4cnc(N)nc4)nc(N4CCOCC4)nc32)C1 [Example 170] | 124 pM |  |
| C[C@@H]1COCCN1c1nc(-c2cnc(N)nc2)c2c(n1)N([C@@]1(C)CCN(C(=O)OC(C)(C)C)C1)CC2 [Example 229] | 55 pM |  |
| C[C@@]1(N2CCc3c(-c4cnc(N)nc4)nc(N4CCOCC4)nc32)CCN(S(C)(=O)=O)C1 [Example 150] | 44 pM |  |
| CC(=O)N1CC(C)(N2CCc3c(-c4cnc(N)nc4)nc(N4CCOC[C@@H]4C)nc32)C1 [Example 452, 1-(3-{4-(2-aminopyrimidin-5-yl)-2-[(3S)-3-methylmorpholin-4-yl]-5,6-dihydro-7H-pyrrolo[2,3-d]pyrimidin-7-yl}-3-methylazetidin-1-yl)ethanone] | 90 pM |  |
| C[C@H](O)COC(=O)N1CC(N2CCc3c(-c4cnc(N)nc4)nc(N4CCOCC4)nc32)C1 [Example 167] | 230 pM |  |
| Cl.Nc1ncc(-c2nc(N3CCOCC3)nc3c2CCN3[C@H]2CNC[C@H]2F)cn1 [Example 255, 5-{7-[(3S,4R)-4-fluoropyrrolidin-3-yl]-2-(morpholin-4-yl)-6,7-dihydro-5H-pyrrolo[2,3-d]pyrimidin-4-yl}pyrimidin-2-amine hydrochloride] | 1168 pM |  |
| C[C@H]1COCCN1c1nc(-c2cnc(N)nc2)c2c(n1)N([C@@H]1[C@@H]3C[C@H]1N(C(=O)OC(C)(C)C)C3)CC2 [Example 524, tert-butyl (1R,4R,5R)-5-{4-(2-aminopyrimidin-5-yl)-2-[(3S)-3-methylmorpholin-4-yl]-5,6-dihydro-7H-pyrrolo[2,3-d]pyrimidin-7-yl}-2-azabicyclo[2.1.1]hexane-2-carboxylate] |  | 8.73 |
| C[C@]1(N2CCc3c(-c4cnc(N)nc4)nc(N4CCOCC4)nc32)CCN(C(=O)[C@@H]2CCN2)C1.Cl [Example 347, {(3S)-3-[4-(2-aminopyrimidin-5-yl)-2-(morpholin-4-yl)-5,6-dihydro-7H-pyrrolo[2,3-d]pyrimidin-7-yl]-3-methylpyrrolidin-1-yl}[(2S)-azetidin-2-yl]methanone hydrochloride] | 75 pM |  |
